Test results: patent US20230313217A1, “CHLOROPLAST TARGETING PEPTIDES AND CONJUGATES AND COMPOSITIONS THEREOF” (The Regents of the University of California, priority 2021, published 2023)

Tests used:
[1] = tested on: chloroplasts in leaf mesophyll cells; experiment: Chemical cargo (FDA) delivery to chloroplasts, confocal colocalization; format: in vivo, Arabidopsis thaliana; settings: FDA alone
From the text: Chemical Cargo and Plasmid DNA and Delivery to Chloroplasts Mediated by Targeted Nanomaterials. To assess the delivery of chemical cargoes to chloroplasts mediated by TP-β-CD nanocarriers, we loaded β-cyclodextrins with the fluorescent dye […] (FDA) (FIG. 4A). We imaged the localization of FDA within leaf mesophyll tissues by confocal microscopy and quantified the localization of this fluorescence dye with chloroplasts autofluorescence (FIG. 4B,C). Plant leaves treated with TP-β-CD-FDA or TP-β-CD (Table 1) were analyzed for the fluorescence emission crosstalk with confocal microscopy under laser excitation with a 488 nm laser (FIG. 13A). […] When added together with CDs or β-CDs, the FDA was observed both in the intracellular and extracellular space. […] In contrast, when FDA was delivered by TP-β-CDs, most of the FDA fluorescence signal was detected inside leaf mesophyll cells and highly colocalized with chloroplasts (70.0±9.5%) (FIG. 4B). […] Although targeted TP-β-CDs improved the delivery of FDA to chloroplasts in leaf mesophyll cells, the FDA fluorescence signal was localized throughout the entire leaf mesophyll cells. […] Colocalization rates of FDA fluorescence with chloroplasts were determined using Mander's coefficient analysis (COLOC2, ImageJ). […]
Confocal Fluorescence Microscopy. […]

[2] = ζ potential of carbon nanostructures (Zetasizer); format: physicochemical; settings: neutral charge
Description: The resulting PEI-SWCNT suspension was characterized by measuring the absorbance spectra on a UV-vis absorbance spectrophotometer (UV-2600, Shimadzu). The quality of the SWCNT suspension was determined by analyzing absorbance peaks at 632 nm. This measurement was performed with triplicates. The concentration of the PEI-SWCNT was determined spectrophotometrically using the absorption value at 632 nm and utilizing the equation (absorbance at 632 nm/extinction coefficient of 0.036)=mg L^−1. The final concentration obtained after purification ranged from 18 to 30 mg/L. The nanoparticle ζ potential was measured using a Zetasizer (Nano ZS, Malvern Instruments) in samples suspended in 10 mM TES buffer pH 7.0, with 0.1 mM NaCl. The hydrodynamic size was measured using Zetasizer (Nano ZS, Malvern Instruments) in samples suspended in a 10 mM TES buffer at pH 7.
Characterization of Nanomaterials. All nanomaterials were characterized by absorbance UV-vis spectroscopy (UV-2600 Shimadzu), hydrodynamic size (Nano S), and ζ potential (Nano ZS). The nanomaterial ζ potential and hydrodynamic diameter were measured in a 10 mM TES buffer (pH 7.0). The ζ potential measurements were performed in 0.1 mM NaCl to improve conductivity and analyzed by the Hückel approximation model.^111 CD fluorescence emission was collected using a fluorescence spectrometer (Horiba PTI QM-400). The stepwise synthesis of TP-β-CDs was analyzed using FTIR (Thermo Nicolet 6700 FTIR).

Compound	localization of FDA in leaf mesophyll tissue [1]	charge of chloroplast targeting peptide [2] [mV]
O=C(O)c1ccc2c(c1)C1(OC2=O)c2ccc(O)cc2Oc2cc(O)ccc21 [FDA, 6-carboxyfluorescein]	localized near the plasma membrane	
MASSMLSSATMVGGC [chloroplast targeting peptide for CD]		−0.1
